From patent US8119589B2, “Modulation of CD4+ T cell responses by a tick saliva protein, Salp15 and polypeptides derived therefrom” (University of North Carolina at Charlotte, priority 2004, dated 2012)

Assays:
mouse CD4+ T lymphocytes = test: TCR ligation-induced protein tyrosine phosphorylation in anti-CD3/CD28 stimulated CD4+ T cells (immunoblotting, confocal microscopy); format: cell-based
Experimental: (§1) Naïve CD4+ T cells from C3H/HeN, Balb/c, and B10.BR mice were purified as previously described (Anguita et al., 2002). CD4+ T cells were preincubated in Click's modified Bruff's Medium (Sigma Chemical Co., St. Louis, Mo., U.S.A.) for 10 minutes at 37° C. with and without Salp15 (50 μg/mL) and stimulated for 20 min or the indicated times at 37° C. with 10 μg/mL of anti-CD3ε, 1 μg/mL of anti-CD28, and 10 μg/mL of anti-armenian and syrian hamster IgG (BD Biosciences Pharmingen, San Jose, Calif., U.S.A.). Jurkat (E6-1) cells were stimulated using 5 μg/mL of OKT3 mAb (eBioscience, San Diego, Calif., U.S.A.) and 1 μg/mL of anti-human CD28 cross linked with 5 μg/mL anti-mouse IgG for the indicated times.
For the visualization of lipid rafts, phospho-tyrosine, and cytoskeleton reorganization, CD4^+, CD8^+ or Jurkat cells were cytospun for 10 minutes at 1000 RPM onto positively charged microslides (Fisher Scientific, Hampton, N.H., U.S.A.). The cells were fixed with 3.7% paraformaldehyde (Sigma Chemical Co.) for 15 minutes and stained with CTB594 (Molecular Probes, Eugene, Oreg., U.S.A.), AlexaFluor488 labeled phalloidin (Molecular Probes) or (1:50) biotin-conjugated anti-p-Tyr (PY99) followed by Streptavidin-AlexaFluor594 (1:100, Molecular Probes). For p-LAT and p-PLCγ1 staining, fixed cells were treated with PBS containing 0.1% Triton-X 100 and 100 mM glycine for 15 min at room temperature and stained using rabbit p-LAT (Tyr^191) or rabbit anti-p-PLCγ1 (Tyr^783) probed with anti-rabbit IgG488 (Molecular Probes).
For tyrosine phosphorylation western analysis, cells were lysed in 60 mM Tris (pH 7.4) containing 150 mM NaCl, 5 mM EDTA, 1 mM EGTA, 1 mM β-glycerol phosphate, 2.5 mM sodium pyrophosphate, 25 mM NaF, 2 mM sodium orthovanadate, 1% Triton-X 100, 0.25% sodium deoxycholate, 1 mM PMSF and protease inhibitors for 15 min on ice, sonicated 4×5 sec and incubated at 37° C. for 10 min. The lysate was cleared by centrifugation and boiled in SDS-sample buffer. The samples were subjected to SDS-PAGE, transferred to a nitrocellulose membrane and immunoblotted with anti-pTyr, anti-pPLCγ1 and anti-Vav1, anti-pSrc family (Tyr^416) to measure p-Lck^394 (Alonso et al., 2004), anti-Lck, anti-pZap70 (Tyr^319), anti-Zap70, p44/42 and p44/42 (phopho-Tyr^204/Thr^202). Vav1 was immunoprecipitated using anti-Vav1 and protein A-agarose beads overnight, subjected to SDS-PAGE followed by immunoblotting with anti-pTyr or anti-Vav1. To examine the effect of Salp15 on T cell stimulation with INFγ, CD4^+ T cells were preincubated with Salp15 at 50 μg/mL followed by activation with 20 ng/mL of mouse recombinant INFγ (R & D Systems, Minneapolis, Minn., U.S.A.) for 30 min at 37° C. The cells were lysed as above and subjected to SDS-PAGE and immunoblotting with anti-pSTAT1 and anti-STAT1.
Quantification of immunoblots was performed using the SCION IMAGE™ software package, Scion Corporation (Frederick, Md., U.S.A.).

Jurkat cells = test: Lipid raft redistribution (CTB594 staining) in activated Jurkat cells; format: cell-based, human; settings: Salp15 treatment prior to anti-CD3/CD28 stimulation
Experimental: as §1
For the visualization of lipid rafts, phospho-tyrosine, and cytoskeleton reorganization, CD4^+, CD8^+ or Jurkat cells were cytospun for 10 minutes at 1000 RPM onto positively charged microslides (Fisher Scientific, Hampton, N.H., U.S.A.). The cells were fixed with 3.7% paraformaldehyde (Sigma Chemical Co.) for 15 minutes and stained with CTB594 (Molecular Probes, Eugene, Oreg., U.S.A.), AlexaFluor488 labeled phalloidin (Molecular Probes) or (1:50) biotin-conjugated anti-p-Tyr (PY99) followed by Streptavidin-AlexaFluor594 (1:100, Molecular Probes). […]

[1] = test system: fusion of HL2/3 cells expressing HIV envelope proteins with HeLa-CD4 cells; test: gp120-CD4-mediated cell fusion by luciferase assay (HeLa-CD4 + HL2/3 cells); format: cell-based; settings: 10 and 50 ug/ml Salp15; 48 hours
Experimental: 106 HeLa-CD4 cells, clone 1022 (NIH AIDS Research & Reference Reagent Program, Germantown, Md., U.S.A.) were plated in a 6-well plate and transfected with the plasmid Blue 3′ LTR-luciferase (NIH AIDS Research & Reference Reagent Program) using the lipofectamin method (Invitrogen).
After 24 hours, the cells were trypsinized and mixed with HL2/3 cells that express HIV envelope proteins (NIH AIDS Research & Reference Reagent Program), encoding Gag, Nef, Rev, Tat and Env proteins from HIV (0.2×106 HeLa-CD4+0.2×106 HL2/3) in a 24-well plate at a final volume of 500 uL. The cells were incubated in the presence of 10 and 50 ug/ml of Salp15. The positive control was anti-CD4 Ab and the negative control was anti-CD3.
The cells were harvested after 48 hours, washed with PBS and lysed with 100 uL of Passive Lysis buffer (Promega) per well, for 15 min at RT. The lysates were transferred to Eppendorf tubes, spun at 10,000×g and assessed for Luciferase activity and protein content by the Bradford assay (BioRad). Luciferase activity is an indicator of cell fusion mediated by the interaction of HIV envelope proteins on HL2/3 cells and CD4 on HeLa-CD4 cells.

[2] = Salp15 pretreatment, quantification of the specific bands

## Salp15: secreted salivary protein from Ixodes scapularis, SEQ ID NO: 2; recombinant His-tagged, produced in Drosophila S2 cells
Mouse CD4+ T lymphocytes; Salp15 pretreatment (50 μg/mL), anti-CD3/CD28 stimulated, compared to control treated cells
  Reduction of PLCγ1 phosphorylation (Tyr783): 46%
Mouse CD4+ T lymphocytes; Salp15 pretreatment, Vav1 immunoprecipitation, anti-pTyr immunoblot
  Reduction in tyrosine phosphorylation of Vav1: ~58%
Mouse CD4+ T lymphocytes; Salp15 pretreatment, immunofluorescence
  Phosphorylation level of Lat at Tyr191: reduced
Mouse CD4+ T lymphocytes; [2]
  Reduction in tyrosine phosphorylation of Lck (Tyr394): about 56%
  Reduction in tyrosine phosphorylation of Zap70 (Tyr319): ~67%
Mouse CD4+ T lymphocytes; anti-CD3/CD28 stimulation
  ERK activation (ERK1/2 phosphorylation): does not impair
Mouse CD4+ T lymphocytes; no stimulation
  Lck phosphorylation in the absence of T cell stimulation: did not induce
Jurkat cells
  Lipid raft clustering: reduced
[1]
  Reduction in cell fusion (luciferase activity): concentration dependent reduction
